Measurements: patent US9108903B2, “Amides as modulators of sodium channels” (VERTEX PHARMACEUTICALS INCORPORATED, priority 2013, dated 2015)

target: human Nav1.8 (Homo sapiens (Human), UniProt Q9Y5Y9); experiment: E-VIPR optical membrane potential assay with electrical stimulation; assay type: cell-based; settings: HEK cells expressing human Nav1.8
Description: Assays for Detecting and Measuring NaV Inhibition Properties of Compounds E-VIPR Optical Membrane Potential Assay Method with Electrical Stimulation
Sodium channels are voltage-dependent proteins that can be activated by inducing membrane voltage changes by applying electric fields. The electrical stimulation instrument and methods of use are described in Ion Channel Assay Methods PCT/US01/21652, herein incorporated by reference and are referred to as E-VIPR. The instrument comprises a microtiter plate handler, an optical system for exciting the coumarin dye while simultaneously recording the coumarin and oxonol emissions, a waveform generator, a current- or voltage-controlled amplifier, and a device for inserting electrodes in well. Under integrated computer control, this instrument passes user-programmed electrical stimulus protocols to cells within the wells of the microtiter plate.
24 hours before the assay on E-VIPR, HEK cells expressing human Nav1.8 were seeded in 384-well poly-lysine coated plates at 15,000-20,000 cells per well. HEK cells were grown in media (exact composition is specific to each cell type and NaV subtype) supplemented with 10% FBS (Fetal Bovine Serum, qualified; GibcoBRL #16140-071) and 1% Pen-Strep (Penicillin-Streptomycin; GibcoBRL #15140-122). Cells were grown in vented cap flasks, in 90% humidity and 5% CO2.
100 mg/mL Pluronic F-127 (Sigma #P2443), in dry DMSO
Compound Plates: 384-well round bottom plate, e.g. Corning 384-well Polypropylene Round Bottom #3656
Cell Plates: 384-well tissue culture treated plate, e.g. Greiner #781091-1B
Bath1 buffer: Glucose 10 mM (1.8 g/L), Magnesium Chloride (Anhydrous), 1 mM (0.095 g/L), Calcium Chloride, 2 mM (0.222 g/L), HEPES 10 mM (2.38 g/L), Potassium Chloride, 4.5 mM (0.335 g/L), Sodium Chloride 160 mM (9.35 g/L).
Hexyl Dye Solution: Bath1 Buffer+0.5% β-cyclodextrin (make this prior to use, Sigma #C4767), 8 μM CC2-DMPE+2.5 μM DiSBAC6(3). To make the solution added volume of 10% Pluronic F127 stock equal to volumes of CC2-DMPE+DiSBAC6(3). The order of preparation was first mix Pluronic and CC2-DMPE, then added DiSBAC6(3) while vortexing, then added Bath1+β-Cyclodextrin.
1) Pre-spotted compounds (in neat DMSO) into compound plates. Vehicle control (neat DMSO), the positive control (20 mM DMSO stock tetracaine, 125 μM final in assay) and test compounds were added to each well at 160× desired final concentration in neat DMSO. Final compound plate volume was 80 μL (80-fold intermediate dilution from 1 μL DMSO spot; 160-fold final dilution after transfer to cell plate). Final DMSO concentration for all wells in assay was 0.625%.
2) Prepared Hexyl Dye Solution.
3) Prepared cell plates. On the day of the assay, medium was aspirated and cells were washed three times with 100 μL of Bath1 Solution, maintaining 25 μL residual volume in each well.
4) Dispensed 25 μL per well of Hexyl Dye Solution into cell plates. Incubated for 20-35 minutes at room temp or ambient conditions.
5) Dispensed 80 μL per well of Bath1 into compound plates. Acid Yellow-17 (1 mM) was added and Potassium Chloride was altered from 4.5 to 20 mM depending on the NaV subtype and assay sensitivity.
6) Washed cell plates three times with 100 μL per well of Bath1, leaving 25 μL of residual volume. Then transfered 25 uL per well from Compound Plates to Cell Plates. Incubated for 20-35 minutes at room temp/ambient condition.
7) Read Plate on E-VIPR. Used the current-controlled amplifier to deliver stimulation wave pulses for 10 seconds and a scan rate of 200 Hz. A pre-stimulus recording was performed for 0.5 seconds to obtain the un-stimulated intensities baseline. The stimulatory waveform was followed by 0.5 seconds of post-stimulation recording to examine the relaxation to the resting state.
Data was analyzed and reported as normalized ratios of emission intensities measured in the 460 nm and 580 nm channels. The response as a function of time was reported as the ratios obtained using the following formula: […]

Sequence of human Nav1.8 (Q9Y5Y9 whole entry): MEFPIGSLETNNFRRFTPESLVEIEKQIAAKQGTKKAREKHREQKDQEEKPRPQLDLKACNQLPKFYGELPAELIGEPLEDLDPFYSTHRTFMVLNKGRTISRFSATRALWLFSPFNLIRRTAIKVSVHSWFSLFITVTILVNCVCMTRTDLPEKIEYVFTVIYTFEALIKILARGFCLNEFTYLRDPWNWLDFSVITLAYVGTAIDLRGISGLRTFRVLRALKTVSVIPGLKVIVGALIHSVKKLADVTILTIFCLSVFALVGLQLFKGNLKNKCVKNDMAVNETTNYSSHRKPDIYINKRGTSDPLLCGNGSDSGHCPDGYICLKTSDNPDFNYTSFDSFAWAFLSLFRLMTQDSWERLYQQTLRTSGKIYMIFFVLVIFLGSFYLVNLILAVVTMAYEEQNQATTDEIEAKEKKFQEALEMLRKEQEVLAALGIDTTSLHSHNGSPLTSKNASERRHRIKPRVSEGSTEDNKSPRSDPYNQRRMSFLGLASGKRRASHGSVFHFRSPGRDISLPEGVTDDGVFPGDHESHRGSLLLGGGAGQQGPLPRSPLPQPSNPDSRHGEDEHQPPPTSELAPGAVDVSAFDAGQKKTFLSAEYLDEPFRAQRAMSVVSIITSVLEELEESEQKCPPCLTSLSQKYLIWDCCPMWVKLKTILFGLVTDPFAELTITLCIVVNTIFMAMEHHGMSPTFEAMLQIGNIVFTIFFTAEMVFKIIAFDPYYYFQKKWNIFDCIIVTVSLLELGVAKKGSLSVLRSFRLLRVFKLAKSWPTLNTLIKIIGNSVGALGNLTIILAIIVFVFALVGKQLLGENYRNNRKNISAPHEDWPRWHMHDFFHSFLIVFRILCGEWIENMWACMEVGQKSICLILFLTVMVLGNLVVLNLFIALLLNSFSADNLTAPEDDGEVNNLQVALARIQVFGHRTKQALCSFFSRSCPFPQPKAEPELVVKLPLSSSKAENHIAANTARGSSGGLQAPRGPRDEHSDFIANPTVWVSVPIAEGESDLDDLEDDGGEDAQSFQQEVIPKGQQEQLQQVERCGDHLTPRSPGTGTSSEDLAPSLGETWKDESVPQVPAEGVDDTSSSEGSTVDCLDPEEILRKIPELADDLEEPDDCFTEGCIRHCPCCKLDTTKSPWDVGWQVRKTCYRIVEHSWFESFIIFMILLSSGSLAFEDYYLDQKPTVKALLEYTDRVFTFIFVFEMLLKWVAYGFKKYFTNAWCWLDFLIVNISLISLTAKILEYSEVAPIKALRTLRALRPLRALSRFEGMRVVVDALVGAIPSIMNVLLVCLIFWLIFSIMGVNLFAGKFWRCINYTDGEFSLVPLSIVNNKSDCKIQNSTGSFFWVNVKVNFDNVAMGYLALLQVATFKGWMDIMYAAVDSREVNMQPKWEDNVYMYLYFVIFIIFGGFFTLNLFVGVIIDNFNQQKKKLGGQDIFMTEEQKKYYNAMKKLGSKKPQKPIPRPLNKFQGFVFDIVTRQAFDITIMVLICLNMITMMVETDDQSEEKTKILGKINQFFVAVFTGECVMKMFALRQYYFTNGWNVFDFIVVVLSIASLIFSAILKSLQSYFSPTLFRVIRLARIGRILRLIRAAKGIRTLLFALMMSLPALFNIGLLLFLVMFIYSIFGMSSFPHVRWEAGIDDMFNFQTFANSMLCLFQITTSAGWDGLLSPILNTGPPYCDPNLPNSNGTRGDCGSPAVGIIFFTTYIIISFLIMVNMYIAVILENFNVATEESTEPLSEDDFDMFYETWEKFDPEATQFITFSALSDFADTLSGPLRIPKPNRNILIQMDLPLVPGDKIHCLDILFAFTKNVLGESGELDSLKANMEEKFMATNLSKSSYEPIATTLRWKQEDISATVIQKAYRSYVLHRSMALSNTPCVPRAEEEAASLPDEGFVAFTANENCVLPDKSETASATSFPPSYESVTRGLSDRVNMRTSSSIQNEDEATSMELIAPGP

SMILES	IC50 [nM]
O=C(O)c1ccc(NC(=O)c2c(Oc3ccc(F)cc3)cc(C(F)(F)F)cc2C(F)(F)F)cc1 [Compound 11, 4-(2-(4-fluorophenoxy)-4,6-bis(trifluoromethyl)benzamido)benzoic acid]	305
COc1cc(F)ccc1Oc1cc(C(F)(F)F)cc(C(F)(F)F)c1C(=O)Nc1ccc(C(=O)O)nc1 [Compound 48, 5-(2-(4-fluoro-2-methoxyphenoxy)-4,6-bis(trifluoromethyl)benzamido)picolinic acid]	14
O=C(O)c1ccc(NC(=O)c2cc(Cl)c(Cl)cc2Oc2ccccc2OC(F)F)cc1 [Compound 19, 4-(4,5-dichloro-2-(2-(difluoromethoxy)phenoxy)benzamido)benzoic acid]	66
COc1ccc(Oc2cc(C(F)(F)F)cc(C(F)(F)F)c2C(=O)Nc2ccc(C(=O)O)nc2)c(OC)c1 [Compound 49, 5-(2-(2,4-dimethoxyphenoxy)-4,6-bis(trifluoromethyl)benzamido)picolinic acid]	6
O=C(O)c1ccc(NC(=O)c2c(Oc3ccc(F)cc3Cl)cccc2C(F)(F)F)cn1 [Compound 74, 5-(2-(2-chloro-4-fluorophenoxy)-6-(trifluoromethyl)benzamido)picolinic acid]	405
Cc1cc(F)ccc1Oc1ccc(C(F)(F)F)cc1C(=O)Nc1ccc(C(=O)O)cc1 [Compound 29, 4-(2-(4-fluoro-2-methylphenoxy)-5-(trifluoromethyl)benzamido)benzoic acid]	245
COc1ccc(Oc2ccc(C(F)(F)F)cc2C(=O)Nc2ccc(C(=O)O)nc2)c(OC)c1 [Compound 65, 5-(2-(2,4-dimethoxyphenoxy)-5-(trifluoromethyl)benzamido)picolinic acid]	39
O=C(O)c1ccc(NC(=O)c2cc(C(F)(F)F)ccc2Oc2ccccc2)cn1 [Compound 70, 5-(2-phenoxy-5-(trifluoromethyl)benzamido)picolinic acid]	985
CC(C)Oc1ccccc1Oc1ccc(C(F)(F)F)cc1C(=O)Nc1ccc(C(=O)O)nc1 [Compound 64, 5-(2-(2-isopropoxyphenoxy)-5-(trifluoromethyl)benzamido)picolinic acid]	755
COc1ccc(Oc2cc(Cl)c(Cl)cc2C(=O)Nc2ccc(C(=O)O)cc2)c(Cl)c1 [Compound 25, 4-(4,5-dichloro-2-(2-chloro-4-methoxyphenoxy)benzamido)benzoic acid]	92
O=C(O)c1ccc(NC(=O)c2cc(Cl)c(Cl)cc2Oc2ccc(OCC(F)(F)F)cc2)cc1 [Compound 17, 4-(4,5-dichloro-2-(4-(2,2,2-trifluoroethoxy)phenoxy)benzamido)benzoic acid]	62
COc1cc(Cl)ccc1Oc1ccc(C(F)(F)F)cc1C(=O)Nc1ccc(C(=O)O)nc1 [Compound 66, 5-(2-(4-chloro-2-methoxyphenoxy)-5-(trifluoromethyl)benzamido)picolinic acid]	68
O=C(O)c1ccc(NC(=O)c2ccc(C(F)(F)F)cc2Oc2ccc(F)cc2Cl)cc1 [Compound 4, 4-(2-(2-chloro-4-fluorophenoxy)-4-(trifluoromethyl)benzamido)benzoic acid]	58
O=C(O)c1ccc(NC(=O)c2ccc(C(F)(F)C(F)(F)F)cc2Oc2ccc(F)cc2Cl)cc1 [Compound 1, 4-(2-(2-chloro-4-fluorophenoxy)-4-(perfluoroethyl)benzamido)benzoic acid]	17
COc1cc(F)ccc1Oc1cc(C(F)(F)C(F)(F)F)ccc1C(=O)Nc1ccc(C(=O)O)cc1 [Compound 27, 4-(2-(4-fluoro-2-methoxyphenoxy)-4-(perfluoroethyl)benzamido)benzoic acid]	20
Cc1cc(F)ccc1Oc1cc(C(F)(F)C(F)(F)F)ccc1C(=O)Nc1ccc(C(=O)O)cc1 [Compound 3, 4-(2-(4-fluoro-2-methylphenoxy)-4-(perfluoroethyl)benzamido)benzoic acid]	22
COc1cc(F)ccc1Oc1cc(Cl)c(Cl)cc1C(=O)Nc1ccc(C(=O)O)nc1 [Compound 51, 5-(4,5-dichloro-2-(4-fluoro-2-methoxyphenoxy)benzamido)picolinic acid]	9
COc1ccccc1Oc1cc(C(F)(F)F)cc(C(F)(F)F)c1C(=O)Nc1ccc(C(=O)O)nc1 [Compound 45, 5-(2-(2-methoxyphenoxy)-4,6-bis(trifluoromethyl)benzamido)picolinic acid]	64
Cc1cc(F)ccc1Oc1cc(C(F)(F)F)cc(C(F)(F)F)c1C(=O)Nc1ccc(C(=O)O)cc1 [Compound 9, 4-(2-(4-fluoro-2-methylphenoxy)-4,6-bis(trifluoromethyl)benzamido)benzoic acid]	130
O=C(O)c1ccc(NC(=O)c2cc(C(F)(F)F)ccc2Oc2ccccc2OC(F)F)cn1 [Compound 60, 5-(2-(2-(difluoromethoxy)phenoxy)-5-(trifluoromethyl)benzamido)picolinic acid]	650
O=C(O)c1ccc(NC(=O)c2ccc(C(F)(F)F)cc2Oc2ccc(F)cc2F)cc1 [Compound 6, 4-(2-(2,4-difluorophenoxy)-4-(trifluoromethyl)benzamido)benzoic acid]	145

Second part, the compound after the results:

IC50 [nM]	SMILES
65	COc1ccc(Oc2cc(Cl)c(Cl)cc2C(=O)Nc2ccc(C(=O)O)nc2)c(Cl)c1 [Compound 43, 5-(4,5-dichloro-2-(2-chloro-4-methoxyphenoxy)benzamido)picolinic acid]
74	Cc1cc(Cl)ccc1Oc1cc(Cl)c(Cl)cc1C(=O)Nc1ccc(C(=O)O)nc1 [Compound 38, 5-(4,5-dichloro-2-(4-chloro-2-methylphenoxy)benzamido)picolinic acid]
78	COc1ccc(Oc2cc(Cl)c(Cl)cc2C(=O)Nc2ccc(C(=O)O)cc2)cc1F [Compound 22, 4-(4,5-dichloro-2-(3-fluoro-4-methoxyphenoxy)benzamido)benzoic acid]
34	O=C(O)c1ccc(NC(=O)c2cc(Cl)c(Cl)cc2Oc2ccc(F)cc2)cn1 [Compound 30, 5-(4,5-dichloro-2-(4-fluorophenoxy)benzamido)picolinic acid]
115	COc1ccc(Oc2cc(Cl)c(Cl)cc2C(=O)Nc2ccc(C(=O)O)cc2)c(F)c1 [Compound 16, 4-(4,5-dichloro-2-(2-fluoro-4-methoxyphenoxy)benzamido)benzoic acid]
39	COc1cc(Cl)ccc1Oc1cc(Cl)c(Cl)cc1C(=O)Nc1ccc(C(=O)O)nc1 [Compound 36, 5-(4,5-dichloro-2-(4-chloro-2-methoxyphenoxy)benzamido)picolinic acid]
15	COc1ccc(Oc2cc(Cl)c(Cl)cc2C(=O)Nc2ccc(C(=O)O)nc2)c(OC)c1 [Compound 39, 5-(4,5-dichloro-2-(2,4-dimethoxyphenoxy)benzamido)picolinic acid]
80	O=C(O)c1ccc(NC(=O)c2cc(C(F)(F)F)ccc2Oc2ccc(F)cc2Cl)cn1 [Compound 58, 5-(2-(2-chloro-4-fluorophenoxy)-5-(trifluoromethyl)benzamido)picolinic acid]
12	O=C(O)c1ccc(NC(=O)c2cc(Cl)c(Cl)cc2Oc2ccc(F)cc2Cl)cn1 [Compound 41, 5-(4,5-dichloro-2-(2-chloro-4-fluorophenoxy)benzamido)picolinic acid]
52	COc1ccc(Oc2cc(Cl)c(Cl)cc2C(=O)Nc2ccc(C(=O)O)nc2)c(F)c1 [Compound 34, 5-(4,5-dichloro-2-(2-fluoro-4-methoxyphenoxy)benzamido)picolinic acid]
